For the assay, the target named is Ras-related C3 botulinum toxin substrate 1 (Homo sapiens) (UniProt P63000). Put plainly: blockers of fluorescent GTP loading onto wildtype Rac1 – biochemical, pyrazoline analogs, multiplex, flow cytometry, Ki, SAR follow-up (AID 2055). The following applies: Rac1-GST beads, Bodipy-FL-GTP binding, Ki calculated from EC50.

By Ki is commonly meant the dissociation constant of the complex between target and ligand, obtained from inhibition or displacement. For the molecule `COc1ccc(C2CC(c3ccccc3)=NN2c2ccc(S(N)(=O)=O)cc2)cc1OC` (stereo unspecified), the Ki is 1240 nM.
Then `O=C(O)c1ccc(N2N=C(c3ccccc3)CC2c2ccccc2)cc1` (stereo unspecified), with 5110 nM; and `Brc1ccc(N2N=C(c3ccccc3)CC2c2ccccc2)cc1` (stereo unspecified), with 890 nM.
For the molecule `CN(C)c1ccc(C2CC(c3ccccc3)=NN2c2ccc([N+](=O)[O-])cc2)cc1` (stereo unspecified), the Ki is 1900 nM.
For `COc1ccc(C2CC(c3ccc(F)cc3)=NN2c2cc(Cl)ccc2Cl)cc1` (stereo unspecified), the Ki is 10 nM.
For the molecule `CC(=O)Oc1ccc(C2=NN(c3ccccc3)C(c3ccccc3)C2)cc1` (stereo unspecified), the Ki was 530 nM.
